Consider 9 compounds from ChEMBL document CHEMBL1201862, “PubChem BioAssay data set” (2004).

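Five compound concentrations were applied to cells in 96-well plates for 48 hours; endpoints were derived by simple linear interpolation of the resulting dose-response curve. GI50: concentration for 50% inhibition of growth.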 Calls of active or inactive are those of the source. Rule as the data show it: active = GI50 up to about 1.1 µM and inactive = higher.

Some test systems named below: A498; EKVX; HCC 2998; HCT-15; HL-60; HOP-62; HOP-92; KM-20L2; LOX IMVI; MOLT-4; Malme-3M; NCI-H226; NCI-H522; OVCAR-4; SF-268; SK-MEL-2; SNB-75; UACC-62; UO-31; M14.
Assay in all cases: DTP human tumour cell line panel, 48 h

By GI50 is commonly meant the concentration giving 50% growth inhibition. In the case of `Nc1c(S(=O)(=O)O)cc2cc(S(=O)(=O)O)ccc2c1/N=N/c1ccc(-c2ccc(/N=N/c3c(N)c(S(=O)(=O)O)cc4cc(S(=O)(=O)O)ccc34)c(S(=O)(=O)O)c2)cc1`, the GI50 is > 100 µM (inactive) with A498; > 100 µM (inactive) in the assay with EKVX; > 100 µM (inactive) in the assay with HCC 2998; above 91.4 µM in the assay with HCT-15; > 71.1 µM (inactive) in the assay on HL-60; > 100 µM (inactive) in the assay with HOP-62. Further, the GI50 is > 56.9 µM (inactive) with HOP-92; 66.4 µM (inactive) with KM-20L2; > 100 µM (inactive) with LOX IMVI; 95.7 µM (inactive) in the assay with MOLT-4; > 100 µM (inactive) with Malme-3M; > 81.3 µM (inactive) in the assay with NCI-H226. Besides, the GI50 was > 100 µM (inactive) in the assay with NCI-H522; 29.4 µM (inactive) in the assay with OVCAR-4; > 100 µM (inactive) in the assay on SF-268; > 100 µM (inactive) in the assay with SK-MEL-2; 85.5 µM (inactive) in the assay on SNB-75; > 100 µM (inactive) in the assay on UACC-62. In the assay with UO-31, the GI50 was > 92.3 µM (inactive).
As to `NN1C(=O)C(CCO)S/C1=N/N=C1/SC(CCO)C(=O)N1N` (stereo unspecified), the GI50 was > 100 µM (inactive) in the assay with A498; > 100 µM (inactive) in the assay with EKVX; > 100 µM (inactive) with HCC 2998; above 100 µM with HCT-15; > 100 µM (inactive) in the assay with HL-60; > 100 µM (inactive) in the assay with HOP-62. Moreover, the GI50 in the assay with HOP-92, in the assay on KM-20L2, with LOX IMVI, in the assay on M14, in the assay with MOLT-4 and with Malme-3M was > 100 µM (inactive) throughout. The GI50 with NCI-H226, in the assay on NCI-H522, in the assay with OVCAR-4, with SF-268, in the assay with SK-MEL-2 and in the assay on SNB-75 was > 100 µM (inactive) throughout. The GI50 with UACC-62 and with UO-31 was > 100 µM (inactive) each time.
`c1ccc(C(c2ccccc2)[P+](c2ccccc2)(c2ccccc2)c2ccccc2)cc1`: the GI50 in the assay on A498 was 2.32 µM (inactive); in the assay on EKVX, 4.7 µM (inactive); in the assay on HCC 2998 it was 0.365 µM (active); in the assay with HCT-15, 4.62 µM; with HL-60 it was 0.182 µM (active); with HOP-62, 0.867 µM (active). In addition, the GI50 in the assay with HOP-92 is 0.543 µM (active); in the assay on KM-20L2, 0.374 µM (active); with LOX IMVI it was 0.265 µM (active); in the assay on MOLT-4, 0.419 µM (active); with Malme-3M it was 0.726 µM (active); in the assay with NCI-H226 it was 0.684 µM (active). For the same compound, the GI50 in the assay with NCI-H522 is 0.223 µM (active); in the assay with OVCAR-4, 0.479 µM (active); with SF-268, 0.556 µM (active); in the assay on SK-MEL-2 it was 0.305 µM (active); with SNB-75, 0.467 µM (active); in the assay with UACC-62, 0.332 µM (active). In addition, the GI50 in the assay with UO-31 was 0.951 µM (active).
Regarding `CC1=C(C(=O)Nc2cccc(Cl)c2)C(c2ccccc2O)C(C(=O)Nc2cccc(Cl)c2)=C(C)N1`, the GI50 in the assay with A498 was 19.5 µM (inactive); in the assay with EKVX, 22.4 µM (inactive); in the assay on HCC 2998 it was 18.9 µM (inactive); in the assay on HL-60, 21 µM (inactive); with HOP-62, 19.3 µM (inactive); in the assay on HOP-92 it was 20.1 µM (inactive). The GI50 in the assay on KM-20L2 was 18.4 µM (inactive); with LOX IMVI, 21.8 µM (inactive); in the assay with M14, 17.4 µM (inactive); in the assay with MOLT-4, 25.2 µM (inactive); in the assay with Malme-3M it was 19.4 µM (inactive); in the assay with NCI-H226, 17.7 µM (inactive). Besides, the GI50 with NCI-H522 is 17.1 µM (inactive); in the assay with OVCAR-4 it was 18.3 µM (inactive); in the assay on SF-268 it was 17.7 µM (inactive); with SK-MEL-2 it was 16.1 µM (inactive); in the assay on SNB-75, 14.9 µM (inactive); in the assay on UO-31 it was 17.2 µM (inactive).
Take `CC(=O)NNc1nc(C)c(C(=O)NNC(=O)C(=O)Nc2ccc([N+](=O)[O-])cc2[N+](=O)[O-])s1`: the GI50 in the assay on A498 is > 100 µM (inactive); in the assay on EKVX it was 35.6 µM (inactive); with HCC 2998, > 100 µM (inactive); in the assay on HCT-15, above 100 µM; in the assay on HL-60, 64.9 µM (inactive); with HOP-62, > 100 µM (inactive). Also, the GI50 in the assay with HOP-92 was 79.3 µM (inactive); in the assay on KM-20L2, > 100 µM (inactive); in the assay with LOX IMVI, > 100 µM (inactive); in the assay with M14 it was > 100 µM (inactive); in the assay with MOLT-4, 37.1 µM (inactive); with NCI-H226 it was > 100 µM (inactive). Besides, the GI50 in the assay on NCI-H522 is 30.6 µM (inactive); with OVCAR-4, > 100 µM (inactive); in the assay with SF-268, > 100 µM (inactive); in the assay on SK-MEL-2 it was > 100 µM (inactive); in the assay on SNB-75, 47.5 µM (inactive); in the assay on UACC-62, > 100 µM (inactive). In addition, the GI50 with UO-31 is > 100 µM (inactive).
Consider `COc1ccc(NC(=O)C(=O)C(C(=O)c2ccccc2)C2OC(=O)c3ccccc32)c([N+](=O)[O-])c1` (stereo unspecified), for which the GI50 is > 100 µM (inactive) with A498; > 100 µM (inactive) with EKVX; > 100 µM (inactive) in the assay with HCC 2998; above 100 µM in the assay on HCT-15; > 100 µM (inactive) in the assay with HL-60; > 100 µM (inactive) with HOP-62. For the same compound, the GI50 in the assay with HOP-92, in the assay with KM-20L2, with LOX IMVI, with M14, in the assay on MOLT-4 and with Malme-3M was > 100 µM (inactive) in each case. Besides, the GI50 with NCI-H226, in the assay with NCI-H522, in the assay with OVCAR-4, in the assay on SF-268, in the assay on SK-MEL-2 and with SNB-75 was > 100 µM (inactive) in each case. Further, the GI50 with UACC-62 and in the assay on UO-31 was > 100 µM (inactive) throughout.
Regarding `COc1cccc2[s+]snc12`, the GI50 in the assay with A498 is 95.7 µM (inactive); with EKVX, > 100 µM (inactive); in the assay on HCC 2998 it was > 100 µM (inactive); in the assay on HCT-15, 42.4 µM; in the assay with HL-60 it was 23.9 µM (inactive); in the assay on HOP-62, 61.7 µM (inactive). Moreover, the GI50 was > 100 µM (inactive) with KM-20L2; 33.6 µM (inactive) with LOX IMVI; > 100 µM (inactive) with M14; 29.7 µM (inactive) with MOLT-4; > 100 µM (inactive) with Malme-3M; > 100 µM (inactive) in the assay on NCI-H226. In addition, the GI50 is > 10 µM (inactive) with NCI-H522; 43.9 µM (inactive) in the assay with OVCAR-4; 34.1 µM (inactive) in the assay with SF-268; 27.2 µM (inactive) in the assay with SK-MEL-2; 69.3 µM (inactive) with SNB-75; 25.1 µM (inactive) in the assay on UACC-62. The GI50 in the assay with UO-31 is 25.1 µM (inactive).
For `CSc1nc(SC)c2cnn(CC3CO3)c2n1` (stereo unspecified), the GI50 with A498 is 62.7 µM (inactive); with EKVX it was 29.3 µM (inactive); with HCC 2998, 17.4 µM (inactive); in the assay with HCT-15, 25.2 µM; in the assay with HL-60 it was 17.5 µM (inactive); in the assay with HOP-62 it was 18.7 µM (inactive). Also, the GI50 in the assay on KM-20L2 was 18.2 µM (inactive); in the assay with LOX IMVI it was 7.59 µM (inactive); in the assay on MOLT-4, 2.17 µM (inactive); in the assay with Malme-3M, 23.5 µM (inactive); with NCI-H226 it was 17.9 µM (inactive); in the assay with NCI-H522 it was 26.2 µM (inactive). Further, the GI50 with OVCAR-4 is 20.7 µM (inactive); in the assay with SF-268 it was 9.73 µM (inactive); in the assay with SK-MEL-2, 16.7 µM (inactive); with SNB-75, 17.3 µM (inactive); with UACC-62 it was 19.2 µM (inactive); in the assay with UO-31 it was 19.5 µM (inactive).
`COc1cccc2c1C(=O)c1c(O)c3c(c(O)c1C2=O)CC(O)(C(=O)CO)CC3OC1CC(N)C(I)C(C)O1` (stereo unspecified): the GI50 in the assay on A498 is 3.53 µM (inactive); with EKVX, 14.4 µM (inactive); with HCC 2998 it was 13.5 µM (inactive); in the assay with HCT-15, 1.83 µM; in the assay with HL-60 it was 0.428 µM (active); in the assay with HOP-62, 1.6 µM (inactive). The GI50 was 9.68 µM (inactive) in the assay with HOP-92; 7.18 µM (inactive) in the assay with KM-20L2; 1.45 µM (inactive) in the assay on LOX IMVI; 0.335 µM (active) in the assay on MOLT-4; 6.05 µM (inactive) with Malme-3M; 0.787 µM (active) with NCI-H226. For the same compound, the GI50 in the assay on NCI-H522 was 2.9 µM (inactive); in the assay on OVCAR-4 it was 4.01 µM (inactive); with SF-268 it was 15.9 µM (inactive); in the assay with SK-MEL-2, 9.79 µM (inactive); in the assay with SNB-75, 2.52 µM (inactive); in the assay on UACC-62, 1.58 µM (inactive). In addition, the GI50 in the assay on UO-31 is 4.88 µM (inactive).
